Laboratory results: patent US20260306476A1, “ANTIBACTERIAL COMPOUND PBT2” (priority 2022, published 2026)
In brackets after ≈: the same amount, converted by molar mass. Where two headings read alike, the source gives them in different places.

Assays:
[1] = tested on: Streptococcus uberis (S. uberis); settings: in the absence of an antibiotic; cited from earlier work
[2] = tested on: Helicobacter pylori ATCC 43504; test: MIC of PBT2 alone (agar); format: cell-based; settings: ATCC43504
[3] = tested on: methicillin-resistant Staphylococcus aureus (MRSA); settings: in the absence of an antibiotic; cited from earlier work
[4] = tested on: Neisseria gonorrhoeae; test: MIC / susceptibility across Neisseria gonorrhoeae strains; format: cell-based; settings: for MIC: Neisseria gonorrhoeae
Excerpt: 13 multidrug resistant WHO strains of Neisseria gonorrhoeae were selected to cover antimicrobial resistance phenotypes to all the antibiotics currently used. MS11 is a laboratory strain and ATCC49226 is a CLSI standard MIC control strain (CLSI. 2022. Performance Standards for Antimicrobial Susceptibility Testing, 32nd Edition. Clinical and Laboratory Standards Institute which is hereby incorporated by reference in its entirety). The MICs (minimum inhibitory concentration) of PBT2 alone in the absence of zinc or a further antimicrobial agent against these Neisseria gonorrhoea strains are summarised in Table 1.

[5] = tested on: Neisseria meningitidis PMC19 (W); test: MIC of PBT2 (broth and agar)
[6] = tested on: MDR Neisseria gonorrhoeae; test: RNA-seq expression profile analysis after PBT2 treatment; format: cell-based; settings: for fold change in gene expression (up- or down-regulated) at 0.156 µg/mL / fold induction at 0.156 µg/mL: Neisseria gonorrhoeae
Procedure: Expression profile analysis using RNA-seq was performed to investigate the mode of action of PBT2 in killing Neisseria gonorrhoeae.

[7] = human; 250 mg/day for up to 72 hours; NCT02249728; cited from earlier work
[8] = tested on: Helicobacter pylori 26695; test: MIC of PBT2 alone (agar); format: cell-based
Procedure: The MIC of PBT2 against four Helicobacter pylori 26695 strains was determined. The strains tested were sensitive to PBT2.

[9] = sub-MIC PBT2 0.156 mg/L, cut-off >=2-fold, P<0.05
[10] = up-regulated gene WHOZ_00323 (ABC transporter periplasmic binding protein, iron related)
[11] = up-regulated gene WHOZ_00324 (iron(III) ABC transporter permease)

SMILES: CN(C)Cc1ccc2c(Cl)cc(Cl)c(O)c2n1 [PBT2, 5,7-dichloro-2-[(dimethylamino)methyl]quinolin-8-ol]
- antibacterial activity [1]: neither PBT2 nor zinc alone displayed antibacterial activity which would be suitable to treat an infection
- MIC [2]: 2.5 µg/mL
- antibacterial activity [3]: neither PBT2 nor zinc alone displayed antibacterial activity which would be suitable to treat an infection
- MIC ([4]; MDR Neisseria gonorrhoeae): 0.313 µg/mL (≈ 1.15 µM)
- MIC ([4]; all strains tested, agar, PBT2 alone): 0.312 to 0.625 µg/mL (≈ 1.15 to 2.31 µM)
- MIC ([4]; all strains tested, broth, PBT2 alone): 0.156 to 0.312 µg/mL (≈ 0.575 to 1.15 µM)
- susceptibility ([4]; all strains tested, PBT2 alone): highly susceptible
- MIC ([5]; agar): 0.078 µg/mL
- MIC ([5]; broth): 0.156 µg/mL
- fold change in gene expression (up- or down-regulated) at 0.156 µg/mL ([6]; read-out: Fold Change, down-regulated gene WHOZ_00293 (Periplasmic protein)): 3.56
- fold change in gene expression (up- or down-regulated) at 0.156 µg/mL ([6]; read-out: Fold Change, down-regulated gene WHOZ_00873 (outer membrane protein)): 3.36
- fold change in gene expression (up- or down-regulated) at 0.156 µg/mL ([6]; read-out: Fold Change, down-regulated gene WHOZ_00996 (Na(+)-translocating NADH-quinone reductase subunit D)): 3.25
- fold change in gene expression (up- or down-regulated) at 0.156 µg/mL ([6]; read-out: Fold Change, down-regulated gene WHOZ_00998 (Na(+)-translocating NADH-quinone reductase subunit B)): 3.3
- fold change in gene expression (up- or down-regulated) at 0.156 µg/mL ([6]; read-out: Fold Change, down-regulated gene WHOZ_01539 (NADH dehydrogenase subunit C)): 3.32
- fold change in gene expression (up- or down-regulated) at 0.156 µg/mL ([6]; read-out: Fold Change, down-regulated gene WHOZ_01541 (NADH dehydrogenase subunit E)): 3.77
- fold change in gene expression (up- or down-regulated) at 0.156 µg/mL ([6]; read-out: Fold Change, down-regulated gene WHOZ_01542 (NADH-quinone oxidoreductase, F subunit)): 3.57
- fold change in gene expression (up- or down-regulated) at 0.156 µg/mL ([6]; read-out: Fold Change, down-regulated gene WHOZ_01545 (NADH-quinone oxidoreductase subunit H)): 3.58
- fold change in gene expression (up- or down-regulated) at 0.156 µg/mL ([6]; read-out: Fold Change, down-regulated gene WHOZ_01546 (NADH dehydrogenase subunit I)): 4.11
- fold change in gene expression (up- or down-regulated) at 0.156 µg/mL ([6]; read-out: Fold Change, down-regulated gene WHOZ_01547 (NADH dehydrogenase subunit J)): 3.8
- fold change in gene expression (up- or down-regulated) at 0.156 µg/mL ([6]; read-out: Fold Change, down-regulated gene WHOZ_01548 (NADH dehydrogenase subunit K)): 4
- fold change in gene expression (up- or down-regulated) at 0.156 µg/mL ([6]; read-out: Fold Change, down-regulated gene WHOZ_01549 (NADH:ubiquinone dehydrogenase, L subunit)): 3.95
- fold change in gene expression (up- or down-regulated) at 0.156 µg/mL ([6]; read-out: Fold Change, down-regulated gene WHOZ_01550 (Predicted HKD family nuclease)): 3.73
- fold change in gene expression (up- or down-regulated) at 0.156 µg/mL ([6]; read-out: Fold Change, down-regulated gene WHOZ_01551 (NADH dehydrogenase subunit M)): 3.68
- fold change in gene expression (up- or down-regulated) at 0.156 µg/mL ([6]; read-out: Fold Change, down-regulated gene WHOZ_01552 (NADH dehydrogenase subunit N)): 3.41
- fold change in gene expression (up- or down-regulated) at 0.156 µg/mL ([6]; read-out: Fold Change, down-regulated gene bfr (bacterioferritin), first entry): 8.2
- fold change in gene expression (up- or down-regulated) at 0.156 µg/mL ([6]; read-out: Fold Change, down-regulated gene bfr (bacterioferritin), second entry): 7.73
- fold change in gene expression (up- or down-regulated) at 0.156 µg/mL ([6]; read-out: Fold Change, down-regulated gene cysK (Cysteine synthetase)): 3.38
- fold change in gene expression (up- or down-regulated) at 0.156 µg/mL ([6]; read-out: Fold Change, down-regulated gene nqrE): 3.48
- fold change in gene expression (up- or down-regulated) at 0.156 µg/mL ([6]; read-out: Fold Change, down-regulated gene nqrF): 3.47
- fold induction at 0.156 µg/mL ([6]; read-out: Fold Change, up-regulated gene WHOZ_00302 (MpeR)): 20.2
- fold induction at 0.156 µg/mL ([6]; read-out: Fold Change, up-regulated gene WHOZ_00403 (putative lipoprotein)): 19.1
- fold induction at 0.156 µg/mL ([6]; read-out: Fold Change, up-regulated gene WHOZ_00412 (putative ferredoxin)): 4.43
- fold induction at 0.156 µg/mL ([6]; read-out: Fold Change, up-regulated gene WHOZ_00413 (Thioredoxin)): 7.01
- fold induction at 0.156 µg/mL ([6]; read-out: Fold Change, up-regulated gene WHOZ_00880 (integral membrane protein)): 3.91
- fold induction at 0.156 µg/mL ([6]; read-out: Fold Change, up-regulated gene WHOZ_01151 (TonB-dependent receptor plug domain-containing protein)): 4.75
- fold induction at 0.156 µg/mL ([6]; read-out: Fold Change, up-regulated gene WHOZ_01152 (hemoglobin receptor)): 5.13
- fold induction at 0.156 µg/mL ([6]; read-out: Fold Change, up-regulated gene WHOZ_01153 (hemoglobin receptor)): 3.89
- fold induction at 0.156 µg/mL ([6]; read-out: Fold Change, up-regulated gene WHOZ_01683 (fetA)): 4.53
- fold induction at 0.156 µg/mL ([6]; read-out: Fold Change, up-regulated gene WHOZ_01837 (outer membrane protein)): 3.91
- fold induction at 0.156 µg/mL ([6]; read-out: Fold Change, up-regulated gene WHOZ_01985 (hypothetical periplasmic protein)): 5.49
- fold induction at 0.156 µg/mL ([6]; read-out: Fold Change, up-regulated gene WHOZ_02005 (transferrin-binding protein-like)): 10.1
- fold induction at 0.156 µg/mL ([6]; read-out: Fold Change, up-regulated gene WHOZ_02042 (TonB)): 11.9
- fold induction at 0.156 µg/mL ([6]; read-out: Fold Change, up-regulated gene WHOZ_02043 (ExbB)): 10.5
- fold induction at 0.156 µg/mL ([6]; read-out: Fold Change, up-regulated gene WHOZ_02044 (ExbD protein)): 12.5
- fold induction at 0.156 µg/mL ([6]; read-out: Fold Change, up-regulated gene WP_003690577.1 (hypothetical protein)): 4.61
- fold induction at 0.156 µg/mL ([6]; read-out: Fold Change, up-regulated gene WP_003690710.1 (hypothetical protein)): 8.64
- fold induction at 0.156 µg/mL ([6]; read-out: Fold Change, up-regulated gene fumC (Fumarase C)): 12.2
- fold induction at 0.156 µg/mL ([6]; sub-MIC PBT2 0.156 mg/L, read-out: up-regulation of mpeR): 20
- fold induction at 0.156 µg/mL ([6]; sub-MIC PBT2 0.156 mg/L, read-out: up-regulation of seven genes): > 10
- LogFC ([6]; down-regulated gene WHOZ_00293 (Periplasmic protein)): 1.83
- LogFC ([6]; down-regulated gene WHOZ_00873 (outer membrane protein)): 1.75
- LogFC ([6]; down-regulated gene WHOZ_00996 (Na(+)-translocating NADH-quinone reductase subunit D)): 1.70
- LogFC ([6]; down-regulated gene WHOZ_00998 (Na(+)-translocating NADH-quinone reductase subunit B)): 1.72
- LogFC ([6]; down-regulated gene WHOZ_01539 (NADH dehydrogenase subunit C)): 1.73
- LogFC ([6]; down-regulated gene WHOZ_01541 (NADH dehydrogenase subunit E)): 1.92
- LogFC ([6]; down-regulated gene WHOZ_01542 (NADH-quinone oxidoreductase, F subunit)): 1.83
- LogFC ([6]; down-regulated gene WHOZ_01545 (NADH-quinone oxidoreductase subunit H)): 1.84
- LogFC ([6]; down-regulated gene WHOZ_01546 (NADH dehydrogenase subunit I)): 2.04
- LogFC ([6]; down-regulated gene WHOZ_01547 (NADH dehydrogenase subunit J)): 1.93
- LogFC ([6]; down-regulated gene WHOZ_01548 (NADH dehydrogenase subunit K)): 2.00
- LogFC ([6]; down-regulated gene WHOZ_01549 (NADH:ubiquinone dehydrogenase, L subunit)): 1.98
- LogFC ([6]; down-regulated gene WHOZ_01550 (Predicted HKD family nuclease)): 1.90
- LogFC ([6]; down-regulated gene WHOZ_01551 (NADH dehydrogenase subunit M)): 1.88
- LogFC ([6]; down-regulated gene WHOZ_01552 (NADH dehydrogenase subunit N)): 1.77
- LogFC ([6]; down-regulated gene bfr (bacterioferritin), first entry): 3.03
- LogFC ([6]; down-regulated gene bfr (bacterioferritin), second entry): 2.95
- LogFC ([6]; down-regulated gene cysK (Cysteine synthetase)): 1.76
- LogFC ([6]; down-regulated gene nqrE): 1.80
- LogFC ([6]; down-regulated gene nqrF): 1.80
- regulation of genes encoding NADH-associated proteins ([6]; sub-MIC PBT2 0.156 mg/L, FIG. 3): down-regulated
- number of down-regulated genes [6, 9]: 96 genes
- number of up-regulated genes [6, 9]: 62 genes
- LogFC ([6]; up-regulated gene WHOZ_00302 (MpeR)): 4.33
- Fold Change [6, 10]: 5.44 fold
- LogFC [6, 10]: 2.44
- Fold Change [6, 11]: 3.74 fold
- LogFC [6, 11]: 1.90
- LogFC ([6]; up-regulated gene WHOZ_00403 (putative lipoprotein)): 4.26
- LogFC ([6]; up-regulated gene WHOZ_00412 (putative ferredoxin)): 2.15
- LogFC ([6]; up-regulated gene WHOZ_00413 (Thioredoxin)): 2.81
- LogFC ([6]; up-regulated gene WHOZ_00880 (integral membrane protein)): 1.97
- LogFC ([6]; up-regulated gene WHOZ_01151 (TonB-dependent receptor plug domain-containing protein)): 2.25
- LogFC ([6]; up-regulated gene WHOZ_01152 (hemoglobin receptor)): 2.36
- LogFC ([6]; up-regulated gene WHOZ_01153 (hemoglobin receptor)): 1.96
- LogFC ([6]; up-regulated gene WHOZ_01683 (fetA)): 2.18
- LogFC ([6]; up-regulated gene WHOZ_01837 (outer membrane protein)): 1.97
- LogFC ([6]; up-regulated gene WHOZ_01985 (hypothetical periplasmic protein)): 2.46
- LogFC ([6]; up-regulated gene WHOZ_02005 (transferrin-binding protein-like)): 3.33
- LogFC ([6]; up-regulated gene WHOZ_02042 (TonB)): 3.58
- LogFC ([6]; up-regulated gene WHOZ_02043 (ExbB)): 3.40
- LogFC ([6]; up-regulated gene WHOZ_02044 (ExbD protein)): 3.64
- LogFC ([6]; up-regulated gene WP_003690577.1 (hypothetical protein)): 2.20
- LogFC ([6]; up-regulated gene WP_003690710.1 (hypothetical protein)): 3.11
- LogFC ([6]; up-regulated gene fumC (Fumarase C)): 3.61
- plasma drug level (AUC) [7]: 1,660 ng*h/ml
- MIC [8]: 1.25 µg/mL
